For orientation: EC50 means the concentration needed to bring the measured effect to its halfway point.

The source of these data is US20230089073A1 (Carmot Therapeutics, Inc., priority 2021, published 2023).

Each structure is given as a SMILES string. Bounds are passed on as bounds.

The target in the test is T1, human GLP-1 receptor (Homo sapiens, UniProt P43220).
T1 construct: expressed in transfected cells
T1 sequence (P43220 24-463): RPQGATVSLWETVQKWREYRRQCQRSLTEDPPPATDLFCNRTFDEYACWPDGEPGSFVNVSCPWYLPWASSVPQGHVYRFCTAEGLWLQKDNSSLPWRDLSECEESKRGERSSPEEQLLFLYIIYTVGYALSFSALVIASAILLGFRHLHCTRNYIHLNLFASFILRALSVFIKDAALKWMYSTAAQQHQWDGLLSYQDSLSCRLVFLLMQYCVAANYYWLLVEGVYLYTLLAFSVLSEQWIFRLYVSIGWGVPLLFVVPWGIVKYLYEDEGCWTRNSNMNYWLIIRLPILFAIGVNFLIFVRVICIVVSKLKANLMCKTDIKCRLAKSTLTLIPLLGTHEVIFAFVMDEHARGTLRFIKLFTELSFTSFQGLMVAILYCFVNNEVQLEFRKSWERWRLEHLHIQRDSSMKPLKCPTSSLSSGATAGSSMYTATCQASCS
Kind of test: GLP-1R cAMP Assay. Format: cell-based. The conditions noted are these: cAMP accumulation in CHO cells stably overexpressing the human GLP-1 receptor; 30 min treatment; HitHunter cAMP kit; read-out: EC50. The gist of the method: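 Luminescent enzyme-complementation detection of cAMP, read after cell lysis and overnight incubation, with dose-response curve fitting. Stimulation lasted 30 min, using 20-point triplicate dosing on CHO cells (10,000 per well) stably overexpressing human GLP-1R.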
As to `O=C(O)c1cc(F)c2nc(CN3CCC(Oc4ccnc(COc5ccc(F)cc5F)n4)CC3)n(C[C@@H]3CCO3)c2c1` [Compound 482, 2-{[4-({2-[(2,4-difluorophenoxy)methyl]pyrimidin-4-yl}oxy)piperidin-1-yl]methyl}-4-fluoro-1-{[(2S)-oxetan-2-yl]methyl}-1H-1,3-benzodiazole-6-carboxylic acid], the concentration for a half-maximal effect (EC50) is below 50 nM.

As to `Cc1cc(C(=O)O)cc2c1nc(CN1CCC(Oc3ccnc(COc4ccc(C#N)cc4F)n3)CC1)n2C[C@@H]1CCO1` [Compound 484, 2-{[4-({2-[(4-cyano-2-fluorophenoxy)methyl]pyrimidin-4-yl}oxy)piperidin-1-yl]methyl}-4-methyl-1-{[(2S)-oxetan-2-yl]methyl}-1H-1,3-benzodiazole-6-carboxylic acid], the EC50 was below 50 nM. `C[C@H]1C[C@@H](Oc2ccnc(COc3ccc(F)cc3F)n2)CCN1Cc1nc2ccc(C(=O)O)cc2n1C[C@@H]1CCO1` [Compound 485, 2-{[(2S,4S)-4-({2-[(2,4-difluorophenoxy)methyl]pyrimidin-4-yl}oxy)-2-methylpiperidin-1-yl]methyl}-1-{[(2S)-oxetan-2-yl]methyl}-1H-1,3-benzodiazole-6-carboxylic acid]: the EC50 is below 50 nM. In the case of `N#Cc1ccc(OCc2nccc(O[C@@H]3C[C@H]4CC[C@@H](C3)N4Cc3nc4ccc(C(=O)O)cc4n3C[C@@H]3CCO3)n2)c(F)c1` [Compound 487, 2-{[(1R,3S,5S)-3-({2-[(4-cyano-2-fluorophenoxy)methyl]pyrimidin-4-yl}oxy)-8-azabicyclo[3.2.1]octan-8-yl]methyl}-1-{[(2S)-oxetan-2-yl]methyl}-1H-1,3-benzodiazole-6-carboxylic acid], the half-maximal effective concentration (EC50) fell in the range of 50 to 500 nM. With `C[C@H]1C[C@@H](Oc2ccnc(COc3ccc(Cl)cc3C#N)n2)CCN1Cc1nc2ccc(C(=O)O)cc2n1C[C@@H]1CCO1` [Compound 489, 2-{[(2S,4S)-4-({2-[(4-chloro-2-cyanophenoxy)methyl]pyrimidin-4-yl}oxy)-2-methylpiperidin-1-yl]methyl}-1-{[(2S)-oxetan-2-yl]methyl}-1H-1,3-benzodiazole-6-carboxylic acid], the concentration giving a half-maximal response (EC50) was below 50 nM. In the case of `N#Cc1ccc(OCc2cc(OC3CCN(Cc4nc5ccc(C(=O)O)cc5n4C[C@@H]4CCO4)CC3)cnn2)c(F)c1` [Compound 491, 2-{[4-({6-[(4-cyano-2-fluorophenoxy)methyl]pyridazin-4-yl}oxy)piperidin-1-yl]methyl}-1-{[(2S)-oxetan-2-yl]methyl}-1H-1,3-benzodiazole-6-carboxylic acid] it was below 50 nM; in that of `C[C@H]1C[C@@H](Oc2nc(COc3ccc(F)cc3C#N)ncc2F)CCN1Cc1nc2ccc(C(=O)O)cc2n1C[C@@H]1CCO1` [Compound 492, 2-{[(2S,4S)-4-({2-[(2-cyano-4-fluorophenoxy)methyl]-5-fluoropyrimidin-4-yl}oxy)-2-methylpiperidin-1-yl]methyl}-1-{[(2S)-oxetan-2-yl]methyl}-1H-1,3-benzodiazole-6-carboxylic acid], below 50 nM.

For the compound `C[C@H]1C[C@@H](Oc2nc(COc3ccc(C#N)cc3F)ncc2F)CCN1Cc1nc2ccc(C(=O)O)cc2n1C[C@@H]1CCO1` [Compound 493, 2-{[(2S,4S)-4-({2-[(4-cyano-2-fluorophenoxy)methyl]-5-fluoropyrimidin-4-yl}oxy)-2-methylpiperidin-1-yl]methyl}-1-{[(2S)-oxetan-2-yl]methyl}-1H-1,3-benzodiazole-6-carboxylic acid], the EC50 was below 50 nM. Take `O=C(O)c1cc(F)c2nc(CN3CCC(Oc4ccnc(COc5cc(F)c(F)cc5F)n4)CC3)n(C[C@@H]3CCO3)c2c1` [Compound 494, 4-fluoro-1-{[(2S)-oxetan-2-yl]methyl}-2-{[4-({2-[(2,4,5-trifluorophenoxy)methyl]pyrimidin-4-yl}oxy)piperidin-1-yl]methyl}-1H-1,3-benzodiazole-6-carboxylic acid]: the half-maximal effective concentration (EC50) was below 50 nM. As for `O=C(O)c1ccc2nc(CN3CCC(Oc4ccnc(COc5cc(F)c(F)cc5F)n4)CC3)n(C[C@@H]3CCO3)c2c1` [Compound 495, 1-{[(2S)-oxetan-2-yl]methyl}-2-{[4-({2-[(2,4,5-trifluorophenoxy)methyl]pyrimidin-4-yl}oxy)piperidin-1-yl]methyl}-1H-1,3-benzodiazole-6-carboxylic acid], the figure is below 50 nM. As for `O=C(O)c1cc(F)c2nc(CN3CCC(Oc4ccnc(COc5ccc(F)cc5F)c4)CC3)n(C[C@@H]3CCO3)c2c1` [Compound 496, 2-{[4-({2-[(2,4-difluorophenoxy)methyl]pyridin-4-yl}oxy)piperidin-1-yl]methyl}-4-fluoro-1-{[(2S)-oxetan-2-yl]methyl}-1H-1,3-benzodiazole-6-carboxylic acid], the concentration for a half-maximal effect (EC50) was below 50 nM. In the case of `C[C@H]1C[C@@H](Oc2ccnc(COc3ccc(F)cc3F)c2)CCN1Cc1nc2ccc(C(=O)O)cc2n1C[C@@H]1CCO1` [Compound 497, 2-{[(2S,4S)-4-({2-[(2,4-difluorophenoxy)methyl]pyridin-4-yl}oxy)-2-methylpiperidin-1-yl]methyl}-1-{[(2S)-oxetan-2-yl]methyl}-1H-1,3-benzodiazole-6-carboxylic acid] it was below 50 nM; in that of `Cc1cc(C(=O)O)cc2c1nc(CN1CCC(Oc3ccnc(COc4ccc(C#N)cc4F)c3)CC1)n2C[C@@H]1CCO1` [Compound 499, 2-{[4-({2-[(4-cyano-2-fluorophenoxy)methyl]pyridin-4-yl}oxy)piperidin-1-yl]methyl}-4-methyl-1-{[(2S)-oxetan-2-yl]methyl}-1H-1,3-benzodiazole-6-carboxylic acid], below 50 nM; in that of `Cc1cc(C(=O)O)cc2c1nc(CN1CCC(Oc3ccnc(COc4ccc(F)cc4C#N)n3)CC1)n2C[C@@H]1CCO1` [Compound 500, 2-{[4-({2-[(2-cyano-4-fluorophenoxy)methyl]pyrimidin-4-yl}oxy)piperidin-1-yl]methyl}-4-methyl-1-{[(2S)-oxetan-2-yl]methyl}-1H-1,3-benzodiazole-6-carboxylic acid], below 50 nM. As for `C[C@H]1C[C@@H](Oc2ccnc(COc3ccc(C#N)cc3F)c2)CCN1Cc1nc2c(F)cc(C(=O)O)cc2n1C[C@@H]1CCO1` [Compound 501, 2-{[(2S,4S)-4-({2-[(4-cyano-2-fluorophenoxy)methyl]pyridin-4-yl}oxy)-2-methylpiperidin-1-yl]methyl}-4-fluoro-1-{[(2S)-oxetan-2-yl]methyl}-1H-1,3-benzodiazole-6-carboxylic acid], the figure is below 50 nM. Take `N#Cc1cc(F)c(OCc2nccc(OC3CCN(Cc4nc5c(F)cc(C(=O)O)cc5n4C[C@@H]4CCO4)CC3)n2)cc1F` [Compound 502, 2-{[4-({2-[(4-cyano-2,5-difluorophenoxy)methyl]pyrimidin-4-yl}oxy)piperidin-1-yl]methyl}-4-fluoro-1-{[(2S)-oxetan-2-yl]methyl}-1H-1,3-benzodiazole-6-carboxylic acid]: the concentration giving a half-maximal response (EC50) was below 50 nM. As for `Cc1cc(C(=O)O)cc2c1nc(CN1CC[C@H](Oc3ccnc(COc4ccc(C#N)cc4F)c3)C[C@@H]1C)n2C[C@@H]1CCO1` [Compound 503, 2-{[(2S,4S)-4-({2-[(4-cyano-2-fluorophenoxy)methyl]pyridin-4-yl}oxy)-2-methylpiperidin-1-yl]methyl}-4-methyl-1-{[(2S)-oxetan-2-yl]methyl}-1H-1,3-benzodiazole-6-carboxylic acid], the figure is below 50 nM; as for `N#Cc1cc(F)c(F)cc1OCc1nccc(OC2CCN(Cc3nc4ccc(C(=O)O)cc4n3C[C@@H]3CCO3)CC2)n1` [Compound 504, 2-{[4-({2-[(2-cyano-4,5-difluorophenoxy)methyl]pyrimidin-4-yl}oxy)piperidin-1-yl]methyl}-1-{[(2S)-oxetan-2-yl]methyl}-1H-1,3-benzodiazole-6-carboxylic acid], below 50 nM; as for `N#Cc1cc(F)c(F)cc1OCc1nccc(OC2CCN(Cc3nc4c(F)cc(C(=O)O)cc4n3C[C@@H]3CCO3)CC2)n1` [Compound 505, 2-{[4-({2-[(2-cyano-4,5-difluorophenoxy)methyl]pyrimidin-4-yl}oxy)piperidin-1-yl]methyl}-4-fluoro-1-{[(2S)-oxetan-2-yl]methyl}-1H-1,3-benzodiazole-6-carboxylic acid], below 50 nM. Take `N#Cc1ccc(OCc2nccc(O[C@@H]3C[C@@H]4C[C@H]3CN4Cc3nc4ccc(C(=O)O)cc4n3C[C@@H]3CCO3)n2)c(F)c1` [Compound 506, 2-{[(1S,4S,5R)-5-({2-[(4-cyano-2-fluorophenoxy)methyl]pyrimidin-4-yl}oxy)-2-azabicyclo[2.2.1]heptan-2-yl]methyl}-1-{[(2S)-oxetan-2-yl]methyl}-1H-1,3-benzodiazole-6-carboxylic acid]: the EC50 is below 50 nM. As for `N#Cc1ccc(OCc2nccc(O[C@H]3C[C@H]4C[C@@H]3CN4Cc3nc4ccc(C(=O)O)cc4n3C[C@@H]3CCO3)n2)c(F)c1` [Compound 507, 2-{[(1R,4R,5S)-5-({2-[(4-cyano-2-fluorophenoxy)methyl]pyrimidin-4-yl}oxy)-2-azabicyclo[2.2.1]heptan-2-yl]methyl}-1-{[(2S)-oxetan-2-yl]methyl}-1H-1,3-benzodiazole-6-carboxylic acid], the figure is below 50 nM; as for `N#Cc1cc(C2CC2)ccc1OCc1nccc(OC2CCN(Cc3nc4c(F)cc(C(=O)O)cc4n3C[C@@H]3CCO3)CC2)n1` [Compound 508, (S)-2-((4-((2-((2-cyano-4-cyclopropylphenoxy)methyl)pyrimidin-4-yl)oxy)piperidin-1-yl)methyl)-4-fluoro-1-(oxetan-2-ylmethyl)-1H-benzo[d]imidazole-6-carboxylic acid], below 50 nM; as for `C[C@H]1C[C@@H](Oc2ccnc(COc3ccc(C4CC4)cc3C#N)n2)CCN1Cc1nc2c(F)cc(C(=O)O)cc2n1C[C@@H]1CCO1` [Compound 509, 2-(((2S,4S)-4-((2-((2-cyano-4-cyclopropylphenoxy)methyl)pyrimidin-4-yl)oxy)-2-methylpiperidin-1-yl)methyl)-4-fluoro-1-(((S)-oxetan-2-yl)methyl)-1H-benzo[d]imidazole-6-carboxylic acid], below 50 nM.
